# Laboratory results reported in patent US7063948B1, “Uses of antibodies against AChE and peptides thereof” (Yissum Research Development Company of the Hebrew …, priority 1999, dated 2006).
# Experiment: Evans Blue dye penetration into brain after confined swim stress
# Format: in vivo
# Conditions: FIG. 6A
# Source text: The above results were confirmed in animal experiments.
compound,measurement,setting,value
Cc1cc(-c2ccc(/N=N/c3ccc4c(S(=O)(=O)O)cc(S(=O)(=O)O)c(N)c4c3O)c(C)c2)ccc1/N=N/c1ccc2c(S(=O)(=O)O)cc(S(=O)(=O)O)c(N)c2c1O [Evans Blue],dye penetration into the brain,nonstressed control mice,very low levels
same,dye penetration into the brain,stressed mice,a large amount of the dye penetrates the brain
